Laboratory results from US10590078B2, “Sodium channel blockers” (Daewoong Pharmaceutical Co., Ltd., priority 2015, dated 2020).

Target: human sodium ion channel 1.7 (hNav1.7) (Homo sapiens, UniProt Q15858)
Test: Blocking effect against sodium ion channel Nav1.7, IonFlux16 auto patch clamp in hNav1.7 HEK293 cells
Format: cell-based
Conditions: hNav1.7 HEK293 cells; inhibition of peak current after 50 seconds treatment; eight concentrations; read-out: IC50

Sequence of human sodium ion channel 1.7 (hNav1.7) (Q15858 whole entry): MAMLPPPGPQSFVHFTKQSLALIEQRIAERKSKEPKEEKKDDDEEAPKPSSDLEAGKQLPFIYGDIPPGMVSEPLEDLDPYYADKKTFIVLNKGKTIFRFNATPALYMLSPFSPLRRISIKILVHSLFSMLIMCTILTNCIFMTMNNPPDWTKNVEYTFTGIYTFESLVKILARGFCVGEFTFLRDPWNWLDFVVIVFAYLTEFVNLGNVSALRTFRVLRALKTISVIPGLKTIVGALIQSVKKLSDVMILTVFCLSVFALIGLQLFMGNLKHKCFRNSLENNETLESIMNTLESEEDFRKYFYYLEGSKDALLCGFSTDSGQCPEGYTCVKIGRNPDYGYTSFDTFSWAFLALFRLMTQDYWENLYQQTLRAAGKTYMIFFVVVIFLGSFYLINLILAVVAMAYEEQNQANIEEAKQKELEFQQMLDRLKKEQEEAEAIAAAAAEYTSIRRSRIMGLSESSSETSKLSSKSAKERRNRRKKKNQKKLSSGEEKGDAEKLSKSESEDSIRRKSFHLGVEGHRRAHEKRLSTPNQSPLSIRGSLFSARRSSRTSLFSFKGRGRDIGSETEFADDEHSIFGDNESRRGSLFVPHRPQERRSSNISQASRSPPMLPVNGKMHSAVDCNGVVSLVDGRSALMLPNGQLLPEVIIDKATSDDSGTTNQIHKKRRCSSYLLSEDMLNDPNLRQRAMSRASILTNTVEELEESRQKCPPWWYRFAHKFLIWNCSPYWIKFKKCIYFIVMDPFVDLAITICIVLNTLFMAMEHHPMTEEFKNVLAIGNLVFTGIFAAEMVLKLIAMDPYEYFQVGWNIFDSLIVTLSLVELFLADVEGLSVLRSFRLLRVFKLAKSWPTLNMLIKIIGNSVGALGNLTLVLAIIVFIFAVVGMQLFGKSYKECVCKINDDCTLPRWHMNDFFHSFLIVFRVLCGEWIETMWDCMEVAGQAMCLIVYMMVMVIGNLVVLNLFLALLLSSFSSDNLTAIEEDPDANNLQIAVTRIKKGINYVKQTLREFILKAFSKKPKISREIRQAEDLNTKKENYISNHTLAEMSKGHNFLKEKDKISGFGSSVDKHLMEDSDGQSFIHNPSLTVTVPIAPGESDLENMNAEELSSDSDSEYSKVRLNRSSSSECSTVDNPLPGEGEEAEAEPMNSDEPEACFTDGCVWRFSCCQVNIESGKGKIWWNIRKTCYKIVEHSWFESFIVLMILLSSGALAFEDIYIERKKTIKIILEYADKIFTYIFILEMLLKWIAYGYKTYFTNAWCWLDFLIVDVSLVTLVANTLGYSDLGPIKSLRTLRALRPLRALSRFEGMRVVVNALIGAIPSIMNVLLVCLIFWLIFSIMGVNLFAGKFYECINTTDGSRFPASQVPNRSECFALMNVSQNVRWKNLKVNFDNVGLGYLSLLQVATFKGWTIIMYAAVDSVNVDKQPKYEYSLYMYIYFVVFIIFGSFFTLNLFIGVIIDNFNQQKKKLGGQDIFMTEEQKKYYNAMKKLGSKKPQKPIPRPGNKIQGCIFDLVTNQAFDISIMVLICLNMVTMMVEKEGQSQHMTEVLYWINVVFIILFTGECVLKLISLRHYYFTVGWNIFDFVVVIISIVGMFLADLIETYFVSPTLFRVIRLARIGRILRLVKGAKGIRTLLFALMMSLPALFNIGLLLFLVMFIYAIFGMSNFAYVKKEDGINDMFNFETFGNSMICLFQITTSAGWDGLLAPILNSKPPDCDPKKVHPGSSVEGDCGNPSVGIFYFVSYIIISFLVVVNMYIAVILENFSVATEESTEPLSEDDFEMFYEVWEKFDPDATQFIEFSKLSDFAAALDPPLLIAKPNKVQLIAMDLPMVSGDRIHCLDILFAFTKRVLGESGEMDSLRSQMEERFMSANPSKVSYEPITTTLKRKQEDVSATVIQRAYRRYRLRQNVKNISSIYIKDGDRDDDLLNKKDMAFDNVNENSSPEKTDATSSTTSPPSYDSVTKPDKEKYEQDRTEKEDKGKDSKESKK

Compound	IC50 [nM]
Cn1nccc1-c1nn(-c2cc(F)c(C(=O)NS(C)(=O)=O)cc2Cl)c2ccc(Cl)cc12 [Example 87, 5-chloro-4-(5-chloro-3-(1-methyl-1H-pyrazol-5-yl)-1H-indazol-1-yl)-2-fluoro-N-(methylsulfonyl)benzamide]	> 3000
O=S(=O)(Nc1cscn1)c1cc(Cl)c(-n2nc(Cl)c3cc(C(F)(F)F)ccc32)cc1F [Example 280, 5-chloro-4-(3-chloro-5-(trifluoromethyl)-1H-indazol-1-yl)-2-fluoro-N-(thiazol-4-yl)benzenesulfonamide]	1080
CS(=O)(=O)NC(=O)c1cc(Cl)c(-n2nc(C3=CCNCC3)c3cc(Cl)ccc32)cc1F [Example 132, 5-chloro-4-(5-chloro-3-(1,2,3,6-tetrahydropyridin-4-yl)-1H-indazol-1-yl)-2-fluoro-N-(methylsulfonyl)benzamide]	> 10000
CS(=O)(=O)NC(=O)c1cc(Cl)c(-n2ncc3cc(N)ccc32)cc1F [Example 13, 4-(5-amino-1H-indazol-1-yl)-5-chloro-2-fluoro-N-(methylsulfonyl)benzamide]	> 10000
CS(=O)(=O)N(Cc1ccc(F)cc1)C(=O)c1cc(Cl)c(-n2nc(Cl)c3cc(O)ccc32)cc1F [Example 141, 5-chloro-4-(3-chloro-5-hydroxy-1H-indazol-1-yl)-2-fluoro-N-(4-fluorobenzyl)-N-(methylsulfonyl)benzamide]	> 10000
CS(=O)(=O)NC(=O)c1cc(Cl)c(-n2nc(Cl)c3cc(-c4cccc(C(F)(F)F)c4)ccc32)cc1F [Example 249, 5-chloro-4-(3-chloro-5-(3-(trifluoromethyl)phenyl)-1H-indazol-1-yl)-2-fluoro-N-(methylsulfonyl)benzamide]	74
CCOC(=O)c1cnc(NC(=O)c2cc(Cl)c(-n3nc(-c4ccc(Cl)cc4F)c4cc(Cl)ccc43)cc2F)s1 [Example 296, ethyl 2-(5-chloro-4-(5-chloro-3-(4-chloro-2-fluorophenyl)-1H-indazol-1-yl)-2-fluorobenzamido)thiazole-5-carboxylate]	> 10000
CS(=O)(=O)NC(=O)c1cc(Cl)c(-n2cc(-c3ccc(Cl)cc3F)c3cc(Cl)cnc32)cc1F [Example 189, 5-chloro-4-(5-chloro-3-(4-chloro-2-fluorophenyl)-1H-pyrrolo[2,3-b]pyridin-1-yl)-2-fluoro-N-(methylsulfonyl)benzamide]	110
CS(=O)(=O)NC(=O)c1cc(Cl)c(-n2nc(-c3cccc(F)c3)c3cc(Cl)ccc32)cc1F [Example 54, 5-chloro-4-(5-chloro-3-(3-fluorophenyl)-1H-indazol-1-yl)-2-fluoro-N-(methylsulfonyl)benzamide]	26
CS(=O)(=O)NC(=O)c1cc(Cl)c(-n2nc(Cl)c3cc(-c4ccc(C#N)cc4)ccc32)cc1F [Example 240, 5-chloro-4-(3-chloro-5-(4-cyanophenyl)-1H-indazol-1-yl)-2-fluoro-N-(methylsulfonyl)benzamide]	752
CS(=O)(=O)NC(=O)c1cc(Cl)c(-n2nc(-c3ccc(F)cc3)c3cc(Cl)ccc32)cc1F [Example 55, 5-chloro-4-(5-chloro-3-(4-fluorophenyl)-1H-indazol-1-yl)-2-fluoro-N-(methylsulfonyl)benzamide]	51
CS(=O)(=O)NC(=O)c1cc(Cl)c(-n2nc(-c3ccccc3F)c3cc(Cl)ccc32)cc1F [Example 53, 5-chloro-4-(5-chloro-3-(2-fluorophenyl)-1H-indazol-1-yl)-2-fluoro-N-(methylsulfonyl)benzamide]	33
CS(=O)(=O)NC(=O)c1cc(Cl)c(-n2cc(-c3cc(Cl)ccc3F)c3cccnc32)cc1F [Example 219, 5-chloro-4-(3-(5-chloro-2-fluorophenyl)-1H-pyrrolo[2,3-b]pyridin-1-yl)-2-fluoro-N-(methylsulfonyl)benzamide]	300
CS(=O)(=O)NC(=O)c1cc(Cl)c(-n2nc(-c3ccccc3)c3cc(C4CC4)ccc32)cc1F [Example 26, 5-chloro-4-(5-cyclopropyl-3-phenyl-1H-indazol-1-yl)-2-fluoro-N-(methylsulfonyl)benzamide]	100
CS(=O)(=O)NC(=O)c1cc(Cl)c(-n2cc(-c3cccc(Cl)c3)c3cc(F)cnc32)cc1F [Example 208, 5-chloro-4-(3-(3-chlorophenyl)-5-fluoro-1H-pyrrolo[2,3-b]pyridin-1-yl)-2-fluoro-N-(methylsulfonyl)benzamide]	50
Cc1cc(F)ccc1-c1cn(-c2cc(F)c(C(=O)NS(C)(=O)=O)cc2Cl)c2ncc(Cl)cc12 [Example 200, 5-chloro-4-(5-chloro-3-(4-fluoro-2-methylphenyl)-1H-pyrrolo[2,3-b]pyridin-1-yl)-2-fluoro-N-(methylsulfonyl)benzamide]	90
CS(=O)(=O)NC(=O)c1cc(Cl)c(-n2nc(Cl)c3cc(-c4ccc(F)nc4F)ccc32)cc1F [Example 246, 5-chloro-4-(3-chloro-5-(2,6-difluoropyridin-3-yl)-1H-indazol-1-yl)-2-fluoro-N-(methylsulfonyl)benzamide]	1050
CS(=O)(=O)NC(=O)c1cc(Cl)c(-n2ncc3c(Cl)c(OCc4ccccc4)ccc32)cc1F [Example 29, 4-(5-(benzyloxy)-4-chloro-1H-indazol-1-yl)-5-chloro-2-fluoro-N-(methylsulfonyl)benzamide]	786

Compound	IC50 [nM]
CS(=O)(=O)NC(=O)c1cc(Cl)c(-n2nc(Cl)c3cc(-c4cncnc4)ccc32)cc1F [Example 241, 5-chloro-4-(3-chloro-5-(pyrimidin-5-yl)-1H-indazol-1-yl)-2-fluoro-N-(methylsulfonyl)benzamide]	> 10000
CS(=O)(=O)NC(=O)c1cc(Cl)c(-n2nc(Cl)c3cc(-c4ccc(F)nc4)ccc32)cc1F [Example 245, 5-chloro-4-(3-chloro-5-(6-fluoropyridin-3-yl)-1H-indazol-1-yl)-2-fluoro-N-(methylsulfonyl)benzamide]	1670
CS(=O)(=O)NC(=O)c1cc(Cl)c(-n2nc(-c3cccc(C#N)c3)c3cc(F)ccc32)cc1F [Example 166, 5-chloro-4-(3-(3-cyanophenyl)-5-fluoro-1H-indazol-1-yl)-2-fluoro-N-(methylsulfonyl)benzamide]	228
CS(=O)(=O)NC(=O)c1cc(Cl)c(-n2nc(Cl)c3cc(-c4ccc(F)cc4)ccc32)cc1F [Example 236, 5-chloro-4-(3-chloro-5-(4-fluorophenyl)-1H-indazol-1-yl)-2-fluoro-N-(methylsulfonyl)benzamide]	71
CS(=O)(=O)NC(=O)c1cc(Cl)c(-n2nc(Cl)c3cc(Oc4ccc(F)nc4)ccc32)cc1F [Example 47, 5-chloro-4-(3-chloro-5-((6-fluoropyridin-3-yl)oxy)-1H-indazol-1-yl)-2-fluoro-N-(methylsulfonyl)benzamide]	437
CS(=O)(=O)NC(=O)c1cc(Cl)c(-n2nc(-c3cccc(Cl)c3F)c3cc(F)ccc32)cc1F [Example 163, 5-chloro-4-(3-(3-chloro-2-fluorophenyl)-5-fluoro-1H-indazol-1-yl)-2-fluoro-N-(methylsulfonyl)benzamide]	120
CS(=O)(=O)NC(=O)c1cc(Cl)c(-n2nc(Cl)c3cc(C(F)(F)F)ccc32)cc1F [Example 18, 5-chloro-4-(3-chloro-5-(trifluoromethyl)-1H-indazol-1-yl)-2-fluoro-N-(methylsulfonyl)benzamide]	587
CS(=O)(=O)NC(=O)c1ccc(-n2nc(-c3ccccc3F)c3cc(Cl)ccc32)c(F)c1 [Example 124, 4-(5-chloro-3-(2-fluorophenyl)-1H-indazol-1-yl)-3-fluoro-N-(methylsulfonyl)benzamide]	290
CS(=O)(=O)NC(=O)c1cc(Cl)c(-n2ncc3cc(Cl)ncc32)cc1F [Example 10, 5-chloro-4-(5-chloro-1H-pyrazolo[3,4-c]pyridin-1-yl)-2-fluoro-N-(methylsulfonyl)benzamide]	> 10000
CS(=O)(=O)NC(=O)c1cc(Cl)c(-n2cc(-c3ccc(Cl)c(F)c3)c3cccnc32)cc1F [Example 223, 5-chloro-4-(3-(4-chloro-3-fluorophenyl)-1H-pyrrolo[2,3-b]pyridin-1-yl)-2-fluoro-N-(methylsulfonyl)benzamide]	230
CS(=O)(=O)NC(=O)c1cc(Cl)c(-n2nc(-c3ccc(F)cc3F)c3cc(F)ccc32)cc1F [Example 159, 5-chloro-4-(3-(2,4-difluorophenyl)-5-fluoro-1H-indazol-1-yl)-2-fluoro-N-(methylsulfonyl)benzamide]	100
CS(=O)(=O)NC(=O)c1cc(Cl)c(-n2nc(Cl)c3ccc(-c4ccccc4)cc32)cc1F [Example 263, 5-chloro-4-(3-chloro-6-phenyl-1H-indazol-1-yl)-2-fluoro-N-(methylsulfonyl)benzamide]	> 10000
CS(=O)(=O)NC(=O)c1cc(Cl)c(-n2nc(-c3ccc(C(F)(F)F)cc3)c3ccccc32)cc1F [Example 178, 5-chloro-2-fluoro-N-(methylsulfonyl)-4-(3-(4-(trifluoromethyl)phenyl)-1H-indazol-1-yl)benzamide]	330
CS(=O)(=O)NC(=O)c1cc(Cl)c(-n2nc(-c3ccc(Cl)cc3)c3cc(C4CC4)ccc32)cc1F [Example 85, 5-chloro-4-(3-(4-chlorophenyl)-5-cyclopropyl-1H-indazol-1-yl)-2-fluoro-N-(methylsulfonyl)benzamide]	600
CS(=O)(=O)NC(=O)c1cc(Cl)c(-n2cc(-c3ccc(F)cc3)c3cccnc32)cc1F [Example 226, 5-chloro-2-fluoro-4-(3-(4-fluorophenyl)-1H-pyrrolo[2,3-b]pyridin-1-yl)-N-(methylsulfonyl)benzamide]	400
CS(=O)(=O)NC(=O)c1cc(Cl)c(-n2nc(-c3ccc(Cl)cc3F)c3cc(F)ccc32)cc1F [Example 142, 5-chloro-4-(3-(4-chloro-2-fluorophenyl)-5-fluoro-1H-indazol-1-yl)-2-fluoro-N-(methylsulfonyl)benzamide]	30
CN(C)S(=O)(=O)NC(=O)c1cc(Cl)c(-n2nc(Cl)c3cc(Cl)ccc32)cc1F [Example 7, 5-chloro-4-(3,5-dichloro-1H-indazol-1-yl)-N—(N,N-dimethylsulfamoyl)-2-fluorobenzamide]	227
